{
  "source": "PubChem BioAssay AID256",
  "about": "(DTP/NCI, 2004)",
  "test_system": "CD2F1 mice, L1210 leukemia ip, survival T/C",
  "test": "NCI In Vivo Anticancer Drug Screen. Data for tumor model L1210 Leukemia (intraperitoneal) in CD2F1 (CDF1) mice",
  "conditions": "higher = longer survival",
  "procedure,_shortened": "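Each value reflects a quotient of treated over vehicle control outcomes in mice with a transplanted tumor.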",
  "key": {"[1]": {"conditions": "endpoint: mean survival time, dose: 100.0 mg/kg/injection, schedule: Q01DX009 (ip), vehicle: saline"}, "[2]": {"conditions": "endpoint: mean survival time, dose: 100.0 mg/kg/injection, schedule: Q04DX003 (ip), vehicle: saline"}, "[3]": {"conditions": "endpoint: mean survival time, dose: 200.0 mg/kg/injection, schedule: Q01DX009 (ip), vehicle: saline"}, "[4]": {"conditions": "endpoint: mean survival time, dose: 100.0 mg/kg/injection, schedule: Q04DX003 (ip), vehicle: saline with Tween-80"}, "[5]": {"conditions": "endpoint: mean survival time, dose: 200.0 mg/kg/injection, schedule: Q04DX003 (ip), vehicle: saline with Tween-80"}},
  "note": "“And” between values parts separate entries of the source, which are not always exact repeats. Identical values can stand only once. Toxic doses and inconclusive results are not listed.",
  "data": [
    {"smiles": "CCOC(=O)CC(=O)N(CC)CC", "values": [
      {"measurement": "T/C", "setting": "[1]", "result": "98 % of control"},
      {"measurement": "T/C", "setting": "[2]", "result": "99 % of control"},
      {"measurement": "T/C", "setting": "[3]", "result": "93 % of control"},
      {"measurement": "T/C", "setting": "endpoint: mean survival time, dose: 200.0 mg/kg/injection, schedule: Q04DX003 (ip), vehicle: saline", "result": "95 % of control"},
      {"measurement": "T/C", "setting": "endpoint: mean survival time, dose: 400.0 mg/kg/injection, schedule: Q01DX009 (ip), vehicle: saline", "result": "96 % of control"},
      {"measurement": "T/C", "setting": "endpoint: mean survival time, dose: 400.0 mg/kg/injection, schedule: Q04DX003 (ip), vehicle: saline", "result": "108 % of control"}
    ]},
    {"smiles": "O=C(O)/C=C/C(=O)Nc1ccc(N=Nc2ccccc2)cc1", "values": [
      {"measurement": "T/C", "setting": "[4]", "result": "93 % of control"},
      {"measurement": "T/C", "setting": "[5]", "result": "98 % of control"}
    ]},
    {"smiles": "CC[N+]1(Cc2ccccc2)CC2(CCCCC2)ON2C1CC(C)C2(C)C", "note": "(configuration not stated)", "values": [
      {"measurement": "T/C", "setting": "endpoint: mean survival time, dose: 25.0 mg/kg/injection, schedule: Q01DX009 (ip), vehicle: saline with Tween-80", "result": "92 % of control"},
      {"measurement": "T/C", "setting": "endpoint: mean survival time, dose: 50.0 mg/kg/injection, schedule: Q01DX009 (ip), vehicle: saline with Tween-80", "result": "93 % of control"}
    ]},
    {"smiles": "Cc1ccc(S(=O)(=O)N2CCCCC2)cc1", "values": [
      {"measurement": "T/C", "setting": "endpoint: mean survival time, dose: 50.0 mg/kg/injection, schedule: Q01DX009 (ip), vehicle: saline", "result": "91 % of control"},
      {"measurement": "T/C", "setting": "[1]", "result": "93 % of control"},
      {"measurement": "T/C", "setting": "[3]", "result": "93 % of control"}
    ]},
    {"smiles": "COc1cc(OC)c(OC)cc1/C=C/c1ccc2ccccc2n1", "values": [
      {"measurement": "T/C", "setting": "[4]", "result": "92 % of control"},
      {"measurement": "T/C", "setting": "[5]", "result": "96 % of control"},
      {"measurement": "T/C", "setting": "endpoint: mean survival time, dose: 400.0 mg/kg/injection, schedule: Q04DX003 (ip), vehicle: saline with Tween-80", "result": "96 % of control"}
    ]},
    {"smiles": "O=[N+]([O-])c1ccc(-c2cn3ccsc3n2)cc1", "values": [
      {"measurement": "T/C", "setting": "endpoint: mean survival time, dose: 100.0 mg/kg/injection, schedule: Q01DX001 (ip), vehicle: Klucel (hydroxypropylcellulose) (HPC)", "result": "87 % of control"},
      {"measurement": "T/C", "setting": "endpoint: mean survival time, dose: 200.0 mg/kg/injection, schedule: Q01DX001 (ip), vehicle: Klucel (hydroxypropylcellulose) (HPC)", "result": "90 % of control"},
      {"measurement": "T/C", "setting": "endpoint: mean survival time, dose: 400.0 mg/kg/injection, schedule: Q01DX001 (ip), vehicle: Klucel (hydroxypropylcellulose) (HPC)", "result": "90 % of control"}
    ]},
    {"smiles": "C=C(C)CNCC(=C)C", "values": [
      {"measurement": "T/C", "setting": "endpoint: mean survival time, dose: 25.0 mg/kg/injection, schedule: Q04DX003 (ip), vehicle: saline", "result": "102 % of control"},
      {"measurement": "T/C", "setting": "endpoint: mean survival time, dose: 50.0 mg/kg/injection, schedule: Q04DX003 (ip), vehicle: saline", "result": "98 % of control"},
      {"measurement": "T/C", "setting": "[2]", "result": "102 % of control and 106 % of control"}
    ]},
    {"smiles": "O=C(c1ccc([N+](=O)[O-])cc1)n1ncc2ccccc21", "values": [
      {"measurement": "T/C", "setting": "endpoint: median survival time, dose: 25.0 mg/kg/injection, schedule: Q04DX002 (ip), vehicle: saline with Tween-80", "result": "100 % of control"},
      {"measurement": "T/C", "setting": "endpoint: median survival time, dose: 50.0 mg/kg/injection, schedule: Q04DX002 (ip), vehicle: saline with Tween-80", "result": "100 % of control"},
      {"measurement": "T/C", "setting": "endpoint: median survival time, dose: 100.0 mg/kg/injection, schedule: Q04DX002 (ip), vehicle: saline with Tween-80", "result": "100 % of control"},
      {"measurement": "T/C", "setting": "endpoint: median survival time, dose: 200.0 mg/kg/injection, schedule: Q04DX002 (ip), vehicle: saline with Tween-80", "result": "100 % of control"}
    ]},
    {"smiles": "OC(COc1ccc(Cl)cc1)COc1ccc(Cl)cc1", "values": [
      {"measurement": "T/C", "setting": "endpoint: mean survival time, dose: 25.0 mg/kg/injection, schedule: Q01DX001 (ip), vehicle: saline with Tween-80", "result": "94 % of control"},
      {"measurement": "T/C", "setting": "endpoint: mean survival time, dose: 50.0 mg/kg/injection, schedule: Q01DX001 (ip), vehicle: saline with Tween-80", "result": "94 % of control"},
      {"measurement": "T/C", "setting": "endpoint: mean survival time, dose: 100.0 mg/kg/injection, schedule: Q01DX001 (ip), vehicle: saline with Tween-80", "result": "105 % of control"}
    ]},
    {"smiles": "O=P(O)(O)OCC(O)CO.[NH-]C1CCCCC1[NH-].[Pt+2]", "note": "(configuration not stated)", "values": [
      {"measurement": "T/C", "setting": "endpoint: mean survival time, dose: 1.17 mg/kg/injection, schedule: Q04DX003 (ip), vehicle: other", "result": "115 % of control"},
      {"measurement": "T/C", "setting": "endpoint: mean survival time, dose: 9.38 mg/kg/injection, schedule: Q04DX003 (ip), vehicle: other", "result": "231 % of control"},
      {"measurement": "T/C", "setting": "endpoint: mean survival time, dose: 18.75 mg/kg/injection, schedule: Q04DX003 (ip), vehicle: other", "result": "186 % of control"},
      {"measurement": "T/C", "setting": "endpoint: mean survival time, dose: 37.5 mg/kg/injection, schedule: Q04DX003 (ip), vehicle: other", "result": "104 % of control"}
    ]},
    {"smiles": "COc1nc(NC2OC(CO)C(O)C(O)C2O)cc(=O)[nH]1", "note": "(configuration not stated)", "values": [
      {"measurement": "T/C", "setting": "endpoint: median survival time, dose: 12.5 mg/kg/injection, schedule: Q01DX005 (ip), vehicle: saline", "result": "105 % of control"},
      {"measurement": "T/C", "setting": "endpoint: median survival time, dose: 25.0 mg/kg/injection, schedule: Q01DX005 (ip), vehicle: saline", "result": "97 % of control"},
      {"measurement": "T/C", "setting": "endpoint: median survival time, dose: 50.0 mg/kg/injection, schedule: Q01DX005 (ip), vehicle: saline", "result": "100 % of control"},
      {"measurement": "T/C", "setting": "endpoint: median survival time, dose: 100.0 mg/kg/injection, schedule: Q01DX005 (ip), vehicle: saline", "result": "100 % of control"},
      {"measurement": "T/C", "setting": "endpoint: median survival time, dose: 200.0 mg/kg/injection, schedule: Q01DX005 (ip), vehicle: saline", "result": "102 % of control"}
    ]},
    {"smiles": "COP(=O)(OC)OCC1OC(n2cnc3c(N)ncnc32)C(O)C1O", "note": "(configuration not stated)", "values": [
      {"measurement": "T/C", "setting": "endpoint: median survival time, dose: 12.5 mg/kg/injection, schedule: Q01DX005 (ip), vehicle: water", "result": "96 % of control"},
      {"measurement": "T/C", "setting": "endpoint: median survival time, dose: 25.0 mg/kg/injection, schedule: Q01DX005 (ip), vehicle: water", "result": "96 % of control"},
      {"measurement": "T/C", "setting": "endpoint: median survival time, dose: 50.0 mg/kg/injection, schedule: Q01DX005 (ip), vehicle: water", "result": "102 % of control"},
      {"measurement": "T/C", "setting": "endpoint: median survival time, dose: 100.0 mg/kg/injection, schedule: Q01DX005 (ip), vehicle: water", "result": "103 % of control"},
      {"measurement": "T/C", "setting": "endpoint: median survival time, dose: 200.0 mg/kg/injection, schedule: Q01DX005 (ip), vehicle: water", "result": "100 % of control"}
    ]},
    {"smiles": "Cc1c2c(ccc3ccccc32)c[n+]2ccccc12", "values": [
      {"measurement": "T/C", "setting": "endpoint: mean survival time, dose: 1.56 mg/kg/injection, schedule: Q01DX009 (ip), vehicle: saline", "result": "98 % of control and 100 % of control"},
      {"measurement": "T/C", "setting": "endpoint: mean survival time, dose: 3.12 mg/kg/injection, schedule: Q01DX009 (ip), vehicle: saline", "result": "103 % of control and 106 % of control"},
      {"measurement": "T/C", "setting": "endpoint: mean survival time, dose: 6.25 mg/kg/injection, schedule: Q01DX009 (ip), vehicle: saline", "result": "104 % of control and 105 % of control"},
      {"measurement": "T/C", "setting": "endpoint: mean survival time, dose: 12.5 mg/kg/injection, schedule: Q01DX009 (ip), vehicle: saline", "result": "103 % of control and 108 % of control"}
    ]}
  ]
}
